Source: US20230031406A1, “COMPOUNDS AND COMPOSITIONS FOR TREATING CONDITIONS ASSOCIATED WITH NLRP ACTIVITY” (Novartis AG, priority 2018, published 2023)
Where two headings read alike, the source gives them in different places. One block for each compound: values may come before it.

Test system: PMA-differentiated THP-1 cells
Experiment: IL-1β production in PMA-differentiated THP-1 cells stimulated with gramicidin (hTHP-1 assay containing 2% fetal bovine serum; Procedures 1 and 2)
Assay type: cell-based, human
Details: 2% fetal bovine serum
Outline: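 Secreted IL-1β, read by HTRF, after gramicidin challenge (5 μM, 2 h) of THP-1 cells differentiated with PMA (20 ng/ml, 16-18 h) and plated at 50,000 cells/well in 2% FBS medium. Compounds, 0.0017-100 μM final with 0.37% DMSO, were added 1 h before stimulation.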

[1] = Homo sapiens, THP-1, Table B2, numeric bounds, read-out: hTHP-1 IC50
[2] = Table B1, class symbols, read-out: Average IC50 of compounds in hTHP-1 assay: hTHP-1 IC50
[3] = Table B2, class symbols, read-out: hTHP-1 IC50
[4] = Homo sapiens, THP-1, Table B1, class symbols, read-out: Average IC50 of compounds in hTHP-1 assay: hTHP-1 IC50
[5] = Homo sapiens, THP-1, Table B3, hTHP-1 assay, class symbols, read-out: IC50

IC50 (Table B1, numeric bounds, read-out: Average IC50 of compounds in hTHP-1 assay: hTHP-1 IC50): > 30 µM
SMILES: CC1CCc2c1nc1c(c2NC(=O)N=S(N)(=O)c2ccc(CN(C)C)cc2)CCC1 (single isomer, unassigned) [Compound 134ab, (S,R) or (S,S)-4-((di-methylamino)methyl)-N′-((3-methyl-1,2,3,5,6,7-hexa-hydrodicyclo-penta[b,e]pyridin-8-yl)carbamoyl)benzene-sulfonimidamide]

IC50 [1]: > 30 µM
SMILES: CC(C)(O)c1ncc(S(N)(=O)=NC(=O)Nc2cc(C(F)F)nc3c2CCC3)s1 (centres unmarked) [Compound 708]

IC50 [2]: 0.2 to 1 µM
SMILES: Cc1c(C2CC2)nc2c(c1NC(=O)N=S(N)(=O)c1cc(C(C)(C)O)cs1)CCC2 (single isomer, unassigned) [Compound 175b, (S) or (R)-N′-((2-cyclopropyl-3-methyl-6,7-dihydro-5H-cyclopenta[b]pyridin-4-yl)carbamoyl)-4-(2-hydroxy-propan-2-yl)thiophene-2-sulfonimidamide]

IC50 [3]: 5 to 30 µM
SMILES: C[C@@H]1CCc2c1nc1c(c2NC(=O)N=S(N)(=O)c2sc(CN(C)C)cc2F)CCC1 (single isomer, unassigned) [Compound 636a, (S) or (R)-5-((Dimethylamino)methyl)-3-fluoro-N′-(((R)-3-methyl-1,2,3,5,6,7-hexahydrodicyclopenta [b,e]pyridin-8-yl)carbamoyl) thiophene-2-sulfonimidamide]

IC50 [4]: 1 to 5 µM
SMILES: NS(=O)(=NC(=O)Nc1c2c(nc3c1CCC31CC1)CCC2)c1ccn(C(F)F)n1 (centres unmarked) [Compound 180, 1-(difluoromethyl)-N′-((1′,5′,6′,7′-tetrahydro-2′H-spiro[cyclopropane-1,3′-dicyclopenta[b,e]pyridin]-8′-yl)carbamoyl)-1H-pyrazole-3-sulfonimidamide]

IC50 [1]: > 30 µM
SMILES: Cc1c(C(F)(F)F)nc2c(c1NC(=O)N=S(N)(=O)c1cnc(C(C)(O)CO)s1)CCC2 (single isomer, unassigned) [Compound 605d, (R, S) and (S, S) or (R, R) and (S, R)-2-(l,2-Dihydroxypropan-2-yl)-N′-((3-methyl-2-(trifluoromethyl)-6,7-dihydro-5H-cyclopenta[b]pyridin-4-yl)carbamoyl) thiazole-5-sulfonimidamide]

IC50 [3]: 5 to 30 µM
SMILES: Cc1nc2c(c(NC(=O)N=S(N)(=O)c3cc(C(C)(C)O)cs3)c1C(C)C)CCC2 (single isomer, unassigned) [Compound 622a, (S) or (R)-4-(2-Hydroxypropan-2-yl)-N′-((3-isopropyl-2-methyl-6,7-dihydro-5H-cyclopenta[b]pyridin-4-yl)carbamoyl) thiophene-2-sulfonimidamide]

IC50 [3]: 0.2 to 1 µM
SMILES: CCc1cc(F)c(S(N)(=O)=NC(=O)Nc2c3c(nc4c2CC[C@H]4C)CCC3)s1 (single isomer, unassigned) [Compound 720a, (R) or (S)-5-Ethyl-3-fluoro-N′-(((R)-3-methyl-1,2,3,5,6,7-hexahydrodicyclopenta[b, e]pyridin-8-yl)carbamoyl)thiophene-2-sulfonimidamide]

IC50 (Table B3, hTHP-1 assay, class symbols, read-out: IC50): 1 to 5 µM
SMILES: Cc1c(C(F)(F)F)nc2c(c1NC(=O)N=S(N)(=O)c1cnc(C(C)(C)O)s1)CCC2C (single isomer, unassigned) [Example 703, (R/S, S) or (R/S, R)-N′-((3,7-dimethyl-2-(trifluoromethyl)-6,7-dihydro-5H-cyclopenta[b]pyridin-4-yl)carbamoyl)-2-(2-hydroxypropan-2-yl)thiazole-5-sulfonimidamide]

IC50 [3]: 1 to 5 µM
SMILES: Cc1c(C(C)C)nc2c(c1NC(=O)N=S(N)(=O)c1cc(C(C)(C)O)cs1)CCC2 (single isomer, unassigned) [Compound 681a, (S) or (R)-4-(2-Hydroxypropan-2-yl)-N′-((2-isopropyl-3-methyl-6,7-dihydro-5H-cyclopenta[b]pyridin-4-yl)carbamoyl) thiophene-2-sulfonimidamide]

IC50 [4]: 0.2 to 1 µM
SMILES: CC1CCc2c1nc1c(c2NC(=O)N=S(N)(=O)c2cc(C(C)(C)O)cs2)CCC1 (single isomer, unassigned) [Compound 141ab, (R,S) or (R,R)-4-(2-hydroxypropan-2-yl)-N′-((3-methyl-1,2,3,5,6,7-hexahydro-dicyclopenta[b,e]pyridin-8-yl)carbamoyl)thiophene-2-sulfonimidamide]

IC50 [5]: 0.2 to 1 µM
SMILES: CC1(C)CCc2c1nc1c(c2NC(=O)N=S(N)(=O)c2sc(C(O)(CO)CO)nc2CO)CCC1 (centres unmarked) [Compound 985b]

IC50 [3]: 0.2 to 1 µM
SMILES: Cc1c(C(F)(F)F)nc2c(c1NC(=O)N=S(N)(=O)c1cnc(C(C)(C)O)s1)CCC2 (single isomer, unassigned) [Compound 661a, (R) or (S)-2-(2-Hydroxypropan-2-yl)-N′-((3-methyl-2-(trifluoromethyl)-6,7-dihydro-5H-cyclopenta[b]pyridin-4-yl)carbamoyl)thiazole-5-sulfonimidamide]

IC50 [4]: 1 to 5 µM
SMILES: Cn1nc(S(N)(=O)=NC(=O)Nc2c3c(nc4c2CCC4)CCC3)cc1C(C)(C)O (centres unmarked) [Compound 158, N-((1,2,3,5,6,7-hexahydrodicyclopenta[b,e]pyridin-8-yl)carbamoyl)-5-(2-hydroxypropan-2-yl)-1-methyl-1H-pyrazole-3-sulfonimidamide]

IC50 [5]: 5 to 30 µM
SMILES: C[C@@](O)(CO)c1cc(F)c([S@@](N)(=O)=NC(=O)Nc2c3c(nc4c2CCC42CC2)CCC3)s1 [Example 675, (S)-5-((R)-1,2-dihydroxypropan-2-yl)-3-fluoro-N′-((1′,5′,6′,7′-tetrahydro-2′H-spiro[cyclopropane-1,3′-dicyclopenta[b,e]pyridin]-8′-yl)carbamoyl)thiophene-2-sulfonimidamide]

IC50 [4]: 1 to 5 µM
SMILES: CC(C)n1ccc(S(N)(=O)=NC(=O)Nc2c3c(nc4c2CCC4)CCC3)n1 (centres unmarked) [Compound 119, N′-((1,2,3,5,6,7-hexahydrodicyclopenta[b,e]pyridin-8-yl)carbamoyl)-1-isopropyl-1H-pyrazole-3-sulfonimidamide]

IC50 [2]: 0.04 to 0.2 µM
SMILES: CC(C)(O)c1cc(F)c(S(N)(=O)=NC(=O)Nc2c3c(nc4c2CCC4)CCC3)s1 (single isomer, unassigned) [Compound 105a, (R) or (S)-3-fluoro-N′-((1,2,3,5,6,7-hexahydro-dicyclopenta[b,e]pyridin-8-yl)carbamoyl)-5-(2-hydroxypropan-2-yl)thio-phene-2-sulfonimidamide]

IC50 (Homo sapiens, THP-1, Table B2, class symbols, read-out: hTHP-1 IC50): 5 to 30 µM
SMILES: Cc1c(CC2CC2)nc2c(c1NC(=O)N=S(N)(=O)c1cc(C(C)(C)O)cs1)CCC2 (centres unmarked) [Compound 655, N′-((2-(cyclopropylmethyl)-3-methyl-6,7-dihydro-5H-cyclopenta[b]pyridin-4-yl)carbamoyl)-4-(2-hydroxypropan-2-yl)thiophene-2-sulfonimidamide]

IC50 [5]: 0.04 to 0.2 µM
SMILES: CCn1cc(F)c(S(N)(=O)=NC(=O)Nc2c3c(nc(C(F)(F)F)c2C2CC2)CCC3)n1 (centres unmarked) [Compound 983]

IC50 [5]: 1 to 5 µM
SMILES: NS(=O)(=NC(=O)Nc1c2c(nc(C3CC3)c1C1CC1)CCC2)c1ccn(C(F)F)n1 (centres unmarked) [Example 571, N′-((2,3-dicyclopropyl-6,7-dihydro-5H-cyclopenta[b]pyridin-4-yl)calbamoyl)-1-(difluoromethyl)-1H-pymzole-3-sulfonimidamide]

IC50 (Table B4, class symbols, read-out: hTHP-1 IC50): 5 to 30 µM
SMILES: Cc1c(C(F)(F)F)nc2c(c1NC(=O)N=S(N)(=O)c1nn(-c3ccccc3)cc1F)CCC2 (single isomer, unassigned) [Example 784, (S) or (R)-4-fluoro-N′-((3-methyl-2-(trifluoromethyl)-6,7-dihydro-5H-cyclopenta [b]pyridin-4-yl)carbamoyl)-1-phenyl-1H-pyrazole-3-sulfonimidamide]

IC50 [4]: 0.04 to 0.2 µM
SMILES: CC(C)(O)c1cc(F)c(S(N)(=O)=NC(=O)Nc2c3c(nc4c2CCC42CC2)CCC3)s1 (centres unmarked) [Compound 101, 3-fluoro-5-(2-hydroxypropan-2-yl)-N′-((1′,5′,6′,7′-tetrahydro-2′H-spiro[cyclopropane-1,3′-dicyclopenta[b,e]pyridin]-8′-yl)carbamoyl)thiophene-2-sulfonimidamide]

IC50 (Homo sapiens, THP-1, Table B3, hTHP-1 assay, numeric values, read-out: IC50): > 30 µM
SMILES: Cc1c(C(F)(F)F)nc2c(c1NC(=O)N=S(N)(=O)c1cnn3c1OCCC3)CCC2 (single isomer, unassigned) [Example 658, (S) or (R)-N′-((3-methyl-2-(trifluoromethyl)-6,7-dihydro-5H-cyclopenta[b]pyridin-4-yl)carbamoyl)-6,7-dihydro-5H-pyrazolo[5,1-b][1,3] oxazine-3-sulfonimidamide]

IC50 (Homo sapiens, THP-1, Table B4, class symbols, read-out: hTHP-1 IC50): 0.2 to 1 µM
SMILES: NS(=O)(=NC(=O)Nc1c2c(nc3c1CCC3)CCC2)c1nn(C(F)F)cc1F (single isomer, unassigned) [Example 759, (R) or (S)-1-(difluoromethyl)-4-fluoro-N′-((1,2,3,5,6,7-hexahydrodicyclopenta[b,e]pyridin-8-yl)carbamoyl)-1H-pyrazole-3-sulfonimidamide]

IC50 [3]: 5 to 30 µM
SMILES: CCn1ccc(S(N)(=O)=NC(=O)Nc2c3c(nc4c2CC[C@H]4C)CCC3)n1 (single isomer, unassigned) [Compound 634a, (S) or (R)-1-Ethyl-N′-(((R)-3-methyl-1,2,3,5,6,7-hexahydrodicyclopenta [b,e]pyridin-8-yl)carbamoyl)-1H-pyrazole-3-sulfonimidamide]

IC50 [1]: > 30 µM
SMILES: CC1(C)CCc2c1nc1c(c2NC(=O)N=S(N)(=O)c2sc(C(C)(O)CO)cc2F)CCC1 (single isomer, unassigned) [Compound 699a, (S, S) and (R, S) or (S, R) and (R, R)-5-(1,2-Dihydroxypropan-2-yl)-N′-((3,3-dimethyl-1,2,3,5,6,7-hexahydrodicyclopenta [b,e]pyridin-8-yl)carbamoyl)-3-fluorotliophene-2-sulfonimidamide]
